Data on three compounds can be found in US9334273B1, “Efficient and stereoselective synthesis of 2′-fluoro-6′-methylene-carbocyclic adenosine (FMCA)” (UNIVERSITY OF GEORGIA RESEARCH FOUNDATION, INC., priority 2014, dated 2016).

For series [1], the system named is entecavir resistant triple mutant (L180M+M204V+S202G) HBV. The following applies: cited from earlier work; for EC50: in vitro, entecavir resistant triple mutant (L180M+M204V+S202G).
The test system of series [2] is HBV wild type as well as resistant mutants. The note with it: both wild type as well as resistant mutants; cited from earlier work.

Structures are written as SMILES.

As usually defined, the EC50 is the concentration that produces a half-maximal response. As usually defined, the melting point is the temperature of the solid-liquid transition.

On to `C=C1C(COP(=O)(N[C@@H](C)C(=O)OC)Oc2ccccc2)C(O)C(F)C1n1cnc2c(N)ncnc21` (stereo partly drawn) [FMCAP], for which the concentration for a half-maximal effect (EC50) in series [1] was 0.054 µM. In series [2], the anti-HBV efficacy result is “demonstrated the anti-HBV efficacy”.
As for `C=C1[C@@H](n2cnc3c(N)ncnc32)C(F)C(O)[C@H]1CO` (single isomer, unassigned; (+)) [FMCA, (+)-9-[(1′R, 2′R, 3′R, 4′R)-2′-Fluoro-3′-hydroxy-4′-(hydroxymethyl)-5′-methylenecyclo-pentan-1′-yl]-adenine], the melting point was 215 to 218 °C (dec.). Moreover, the EC50 in series [1] was 0.67 µM. Besides, in series [2], the anti-HBV efficacy entry is given as “demonstrated the anti-HBV efficacy”.
Take `C=C1[C@H](CO)[C@@H](O)C[C@@H]1n1cnc2c(=O)[nH]c(N)nc21` [entecavir, reference compound]: in series [1] (triple mutant (L180M+M204V+S202G) vs wild type), the “fold less effective against the mutant in comparison to wild type” value was 150 fold.
